In patent US9850283B2, “Macrocyclic inhibitors of the PD-1/PD-L1 and CD80(B7-1)/PD-L1 protein/protein interactions” (BRISTOL-MYERS SQUIBB COMPANY, priority 2013, dated 2017):
Like-named read-outs stand apart in the source and are kept apart here. Positions of bridges follow the written chain, without caps; N, C: chain ends. Non-standard residues stand in square brackets, D forms with d. Residues, ends and D or L forms follow the SMILES beside them. Phe(3,4-Cl2) = N[C@@H](Cc1ccc(Cl)c(Cl)c1)C(=O)O; Phe(4-CH2NH2) = NCc1ccc(C[C@H](N)C(=O)O)cc1; Phe(4-Cl) = N[C@@H](Cc1ccc(Cl)cc1)C(=O)O; Phe(3-F) = N[C@@H](Cc1cccc(F)c1)C(=O)O; Bta = N[C@@H](Cc1csc2ccccc12)C(=O)O; Hyp = O=C(O)[C@@H]1C[C@@H](O)CN1; NMeF = CN[C@@H](Cc1ccccc1)C(=O)O; tBuAla = CC(C)(C)C[C@H](N)C(=O)O; NMeNle = CCCC[C@H](NC)C(=O)O; NMeA = CN[C@@H](C)C(=O)O; Dap = NC[C@H](N)C(=O)O; Sar = CNCC(=O)O

Legend:
Human PD-L1/PD-1 = target: T1, Human PD-L1/PD-1 (Homo sapiens, UniProt Q9NZQ7); assay: HTRF PD-1-Ig/PD-L1-His binding assay (human PD-L1); details: cluster symbol; read-out: HTRF IC50 cluster
T1 construct: made in house; host or cells: HEK293T
T1 sequence (Q9NZQ7 with tags, fused parts or gaps): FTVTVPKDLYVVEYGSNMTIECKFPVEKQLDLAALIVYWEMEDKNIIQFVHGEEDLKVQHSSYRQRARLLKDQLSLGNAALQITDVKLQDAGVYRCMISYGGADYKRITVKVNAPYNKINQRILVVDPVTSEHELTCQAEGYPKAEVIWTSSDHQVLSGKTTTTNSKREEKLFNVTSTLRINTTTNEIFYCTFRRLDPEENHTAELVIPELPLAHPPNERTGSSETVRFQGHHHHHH
Summary of the method: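 The time-resolved fluorescence signal comes from Eu-cryptate anti-Ig (1 nM) and APC anti-His (20 nM) antibodies bound to a PD-1-Ig/PD-L1-His complex. Both partners lack transmembrane regions.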

[1] = target: T2, LK35.2-hPD-L1 cells / PE-labeled PD-1-Ig (Homo sapiens, UniProt Q9NZQ7); assay: LK35.2-hPD-L1 cell binding high-content screening assay; assay type: cell-based; details: cluster symbol, read-out: CBA IC50 cluster
T2 construct: expressed in transfected cells; host or cells: LK35.2 mouse B cell line
T2 sequence (Q9NZQ7 19-290): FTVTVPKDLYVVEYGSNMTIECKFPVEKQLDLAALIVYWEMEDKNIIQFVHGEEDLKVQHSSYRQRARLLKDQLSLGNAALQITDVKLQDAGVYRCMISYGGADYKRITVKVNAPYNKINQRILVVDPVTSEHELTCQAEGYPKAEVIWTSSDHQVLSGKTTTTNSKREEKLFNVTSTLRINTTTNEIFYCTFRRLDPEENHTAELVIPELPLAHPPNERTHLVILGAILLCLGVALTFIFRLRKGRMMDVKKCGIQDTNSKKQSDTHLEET
Summary of the method: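 Fluorescent PD-1-Ig binding to PD-L1-expressing LK35.2 cells, imaged after washing. Conditions: 1 nM PE-PD-1-Ig, 37 °C, 1 h, RPMI with 10% fetal calf serum.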

[2] = cell binding assay, cell line not given
[3] = cell line of CBA not given (LK35.2-hPD-L1 or 293T-hPD-L1)

| SMILES | IC50 (Human PD-L1/PD-1) | IC50 [1, 2] | IC50 [1, 3] |
| --- | --- | --- | --- |
| CCCC[C@H]1C(=O)N(C)[C@@H](CCCC)C(=O)N[C@@H](CC(C)C)C(=O)N[C@H](C(=O)NCC(N)=O)CSCC(=O)N[C@@H](Cc2ccc(O)cc2)C(=O)N(C)[C@@H](C)C(=O)N[C@@H](CC(N)=O)C(=O)N2CCC[C@H]2C(=O)N[C@@H](CN)C(=O)N[C@@H](CC(C)(C)C)C(=O)N2C[C@H](O)C[C@H]2C(=O)N[C@@H](Cc2c[nH]c3ccccc23)C(=O)N[C@@H](CO)C(=O)N[C@@H](Cc2c[nH]c3ccccc23)C(=O)N1C [Example 5083] ({CH2CO}-Y[NMeA]NP[Dap][tBuAla][Hyp]WSW[NMeNle][NMeNle]LCG-NH2; thioether N-14) | 0.385 to 6.74 nM | 0.158 to 4.71 nM |  |
| CCCC[C@H]1C(=O)N(C)CC(=O)N[C@@H](CC(=O)O)C(=O)N[C@@H](C(C)C)C(=O)N(C)[C@@H](Cc2ccccc2)C(=O)N[C@@H](Cc2ccc(CN)cc2)C(=O)N(C)CC(=O)N[C@@H](Cc2c[nH]c3ccccc23)C(=O)N[C@@H](Cc2ccc(O)cc2)C(=O)N[C@@H](CC(C)C)C(=O)N[C@H](C(=O)NCC(N)=O)CSCC(=O)N[C@@H](Cc2cccc(F)c2)C(=O)N(C)[C@@H](Cc2ccccc2)C(=O)N1C [Example 3124] ({CH2CO}-[Phe(3-F)][NMeF][NMeNle][Sar]DV[NMeF][Phe(4-CH2NH2)][Sar]WYLCG-NH2; thioether N-13) | 6.76 to 30.3 nM |  | 0.158 to 4.71 nM |
| CCCC[C@H]1C(=O)N(C)CC(=O)N[C@@H](CC(=O)O)C(=O)N[C@@H](C(C)C)C(=O)N(C)[C@@H](Cc2ccccc2)C(=O)N[C@@H](CCCNC(=N)N)C(=O)N(C)CC(=O)N[C@@H](Cc2c[nH]c3ccccc23)C(=O)N[C@@H](Cc2ccc(O)cc2)C(=O)N[C@@H](CC(C)C)C(=O)N[C@H](C(=O)NCC(N)=O)CSCC(=O)N[C@@H](Cc2ccccc2)C(=O)N(C)[C@@H](Cc2ccccc2)C(=O)N1C [Example 3506] (HELM PEPTIDE1{[O=C(C[*:3])[*:2]].F.[meF].[CCCC[C@@H](C(=O)[*:2])N(C)[*:1]].[Sar].D.V.[meF].R.[Sar].W.Y.L.C.G.[am]}$PEPTIDE1,PEPTIDE1,1:R3-14:R3$$$V2.0) | 0.385 to 6.74 nM | 4.78 to 72.9 nM |  |
| CCCC[C@H]1C(=O)N(C)[C@@H](CCCC)C(=O)N[C@@H](CCCNC(=N)N)C(=O)N[C@H](C(=O)NCC(=O)O)CSCC(=O)N[C@@H](Cc2ccccc2)C(=O)N(C)[C@@H](C)C(=O)N[C@@H](CC(N)=O)C(=O)N2CCC[C@H]2C(=O)N[C@@H](Cc2cnc[nH]2)C(=O)N[C@@H](CC(C)C)C(=O)N(C)CC(=O)N[C@@H](Cc2c[nH]c3ccccc23)C(=O)N[C@@H](CO)C(=O)N[C@@H](Cc2c[nH]c3ccccc23)C(=O)N1C [Example 1076] ({CH2CO}-F[NMeA]NPHL[Sar]WSW[NMeNle][NMeNle]RCG-OH; thioether N-14) | 6.76 to 30.3 nM |  | 4.78 to 72.9 nM |
| CCCC[C@H]1C(=O)N(C)[C@@H](CCCC)C(=O)N[C@@H](CCCNC(=N)N)C(=O)N[C@H](C(=O)NCC(N)=O)CSCC(=O)N[C@@H](Cc2ccc(Cl)c(Cl)c2)C(=O)N(C)[C@@H](C)C(=O)N[C@@H](CC(N)=O)C(=O)N2CCC[C@H]2C(=O)N[C@@H](CN)C(=O)N[C@@H](CC(C)C)C(=O)N2C[C@H](O)C[C@H]2C(=O)N[C@@H](Cc2c[nH]c3ccccc23)C(=O)N[C@@H](CO)C(=O)N[C@@H](Cc2c[nH]c3ccccc23)C(=O)N1C [Example 7063] ({CH2CO}-[Phe(3,4-Cl2)][NMeA]NP[Dap]L[Hyp]WSW[NMeNle][NMeNle]RCG-NH2; thioether N-14) | 0.385 to 6.74 nM | 4.78 to 72.9 nM |  |
| CCCC[C@H]1C(=O)N2CCC[C@@H]2C(=O)N[C@@H](CCCNC(=N)N)C(=O)N[C@H](C(=O)NCC(N)=O)CSCC(=O)N[C@@H](Cc2ccc(O)cc2)C(=O)N(C)[C@@H](C)C(=O)N[C@@H](CC(N)=O)C(=O)N2CCC[C@H]2C(=O)N[C@@H](Cc2cnc[nH]2)C(=O)N[C@@H](CC(C)C)C(=O)N2CCC[C@H]2C(=O)N[C@@H](Cc2c[nH]c3ccccc23)C(=O)N[C@@H](CO)C(=O)N[C@@H](Cc2csc3ccccc23)C(=O)N1C [Example 5004] ({CH2CO}-Y[NMeA]NPHLPWS[Bta][NMeNle][dP]RCG-NH2; thioether N-14) | 6.76 to 30.3 nM | 4.78 to 72.9 nM |  |
| CCCC[C@H]1C(=O)N(C)[C@@H](CCCC)C(=O)N[C@@H](CCCNC(=N)N)C(=O)N[C@H](C(=O)NCC(N)=O)CSCC(=O)N[C@@H](Cc2ccc(Cl)cc2)C(=O)N(C)[C@@H](C)C(=O)N[C@@H](CC(N)=O)C(=O)N2CCC[C@H]2C(=O)N[C@@H](Cc2cnc[nH]2)C(=O)N[C@@H](CC(C)C)C(=O)N2CCC[C@H]2C(=O)N[C@@H](Cc2c[nH]c3ccccc23)C(=O)N[C@@H](CO)C(=O)N[C@@H](Cc2csc3ccccc23)C(=O)N1C [Example 1124] ({CH2CO}-[Phe(4-Cl)][NMeA]NPHLPWS[Bta][NMeNle][NMeNle]RCG-NH2; thioether N-14) | 6.76 to 30.3 nM |  | 4.78 to 72.9 nM |
